Assay results reported in patent US9988400B2 (Genentech, Inc., priority 2013, dated 2018).

Biological target: T1, HEK cells stably transfected with tetracycline inducible hNR1 and hNR2A (Homo sapiens, UniProt Q05586+Q12879)
T1 construct: expressed in transfected cells; host or cells: HEK cells, stably transfected, tetracycline/doxycycline inducible
Assay: Assay 1: Cell-Based Assay, cytosolic calcium response to positive allosteric modulators (with 30 μM glycine and 300 nM L-glutamate, EC30)
Settings: for EC50: cytosolic calcium response, with 30 μM glycine and 300 nM L-glutamate (EC30), — = no plateau was reached; for Max %: responses scaled relative to 100 μM L-glutamate maximal response (100%) and 0 μM L-glutamate (0%)
How it was run: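 Cells induced 24 h with 7.5 μg mL^−1 doxycycline plus 500 μM (+)-ketamine, loaded 60 min at 37 °C with calcium dye in Mg-free HBSS (1.8 mM Ca, probenecid, 10 μM (+)-ketamine, pH 7.15). Peak RFU over 5 min after compound addition, scaled to 100 μM L-glutamate (100%) and 0 μM (0%); four-parameter Hill fit for EC50, max % if no plateau.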

T1 sequence (Q12879 23-1464, other chains not shown): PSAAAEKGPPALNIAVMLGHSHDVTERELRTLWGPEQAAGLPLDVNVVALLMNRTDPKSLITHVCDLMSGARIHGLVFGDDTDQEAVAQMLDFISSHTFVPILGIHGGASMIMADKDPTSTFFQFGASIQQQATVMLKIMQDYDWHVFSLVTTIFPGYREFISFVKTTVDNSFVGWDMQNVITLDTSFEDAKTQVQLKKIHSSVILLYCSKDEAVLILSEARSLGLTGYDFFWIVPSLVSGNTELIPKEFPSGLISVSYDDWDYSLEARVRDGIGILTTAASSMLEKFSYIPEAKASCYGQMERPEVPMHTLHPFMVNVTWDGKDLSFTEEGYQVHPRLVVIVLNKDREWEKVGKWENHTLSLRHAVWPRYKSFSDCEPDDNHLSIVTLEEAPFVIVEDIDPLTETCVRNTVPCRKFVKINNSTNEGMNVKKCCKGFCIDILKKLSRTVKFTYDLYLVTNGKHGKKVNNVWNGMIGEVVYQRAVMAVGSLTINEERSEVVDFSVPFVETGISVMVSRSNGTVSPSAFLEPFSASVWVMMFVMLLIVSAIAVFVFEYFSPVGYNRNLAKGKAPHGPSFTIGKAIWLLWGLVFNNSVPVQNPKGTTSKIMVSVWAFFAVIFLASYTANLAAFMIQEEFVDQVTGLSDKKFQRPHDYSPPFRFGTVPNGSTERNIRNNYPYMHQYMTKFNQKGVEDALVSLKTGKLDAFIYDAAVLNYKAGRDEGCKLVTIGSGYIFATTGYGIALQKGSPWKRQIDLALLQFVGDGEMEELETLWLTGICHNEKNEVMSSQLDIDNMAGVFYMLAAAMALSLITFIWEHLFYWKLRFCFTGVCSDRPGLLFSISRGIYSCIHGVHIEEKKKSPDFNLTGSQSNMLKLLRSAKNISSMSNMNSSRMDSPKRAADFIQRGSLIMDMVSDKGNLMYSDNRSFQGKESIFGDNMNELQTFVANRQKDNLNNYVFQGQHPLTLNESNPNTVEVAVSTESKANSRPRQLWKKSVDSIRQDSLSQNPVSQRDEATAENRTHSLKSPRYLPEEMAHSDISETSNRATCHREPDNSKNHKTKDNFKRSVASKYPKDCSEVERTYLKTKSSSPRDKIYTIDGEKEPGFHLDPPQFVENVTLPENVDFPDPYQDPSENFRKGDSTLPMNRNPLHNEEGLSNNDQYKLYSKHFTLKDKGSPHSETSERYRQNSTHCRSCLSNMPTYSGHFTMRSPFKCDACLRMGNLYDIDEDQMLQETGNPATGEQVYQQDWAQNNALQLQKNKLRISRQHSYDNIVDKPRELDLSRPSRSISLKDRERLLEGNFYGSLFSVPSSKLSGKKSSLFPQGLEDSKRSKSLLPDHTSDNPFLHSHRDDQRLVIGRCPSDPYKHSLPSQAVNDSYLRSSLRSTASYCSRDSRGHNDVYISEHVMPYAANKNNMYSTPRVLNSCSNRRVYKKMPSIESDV

Structure (SMILES) | EC50 (Table 2) [nM] | Max % (Table 2) [%] | EC50 (Table 3) [nM]
Cc1sc2nc(Cn3nc(C(F)(F)F)cc3Cl)cc(=O)n2c1C1CC1 [compound 116, 7-[[5-chloro-3-(trifluoromethyl)pyrazol-1-yl]methyl]-3-cyclopropyl-2-methyl-thiazolo[3,2-a]pyrimidin-5-one] |  |  | 351
N#CC1CC1c1csc2nc(Cn3nc(C(F)(F)F)cc3Cl)cc(=O)n12 (stereo not drawn) [compound 241, 2-[7-[[5-chloro-3-(trifluoromethyl)pyrazol-1-yl]methyl]-5-oxo-thiazolo[3,2-a]pyrimidin-3-yl]cyclopropanecarbonitrile] |  |  | 313
Cc1sc2nc(Cc3cccc(C(F)(F)F)c3F)cc(=O)n2c1C1CC1C#N (stereo not drawn) [compound 131, 2-[7-[[2-fluoro-3-(trifluoromethyl)phenyl]methyl]-2-methyl-5-oxo-thiazolo[3,2-a]pyrimidin-3-yl]cyclopropanecarbonitrile] |  |  | 681
CNC(=O)c1c(C)sc2nc(Cn3nc(Cl)cc3C(F)(F)F)cc(=O)n12 [compound 97, 7-[[3-chloro-5-(trifluoromethyl)pyrazol-1-yl]methyl]-N,2-dimethyl-5-oxo-thiazolo[3,2-a]pyrimidine-3-carboxamide] |  |  | 5110
CCNC(=O)c1c(C)sc2nc(CN(C)c3ccc(F)cn3)cc(=O)n12 [compound 143, N-ethyl-7-[[(5-fluoro-2-pyridyl)-methyl-amino]methyl]-2-methyl-5-oxo-thiazolo[3,2-a]pyrimidine-3-carboxamide] |  |  | 12000
O=c1cc(Cn2nc(C(F)(F)F)cc2Cl)nc2sc(C(F)(F)F)c(C3CC3CO)n12 (single isomer, unassigned) [compound 270] |  |  | 518
CCc1sc2nc(Cc3cccc(C(F)(F)F)c3F)cc(=O)n2c1C(=O)NC [compound 93, 2-ethyl-7-[[2-fluoro-3-(trifluoromethyl)phenyl]methyl]-N-methyl-5-oxo-thiazolo[3,2-a]pyrimidine-3-carboxamide] |  |  | 1830
CNC(=O)Cc1c(C(F)(F)F)sc2nc(Cc3cccc(C(F)(F)F)c3F)cc(=O)n12 [compound 75, 2-[7-[[2-fluoro-3-(trifluoromethyl)phenyl]methyl]-5-oxo-2-(trifluoromethyl)thiazolo[3,2-a]pyrimidin-3-yl]-N-methyl-acetamide] |  |  | 28900
Cc1sc2nc(Cn3nc(C(F)(F)F)cc3Cl)cc(=O)n2c1C1CC1C#N (single isomer, unassigned) [compound 125] |  |  | 27.8

Next, values leading:

EC50 (Table 2) [nM] | Max % (Table 2) [%] | EC50 (Table 3) [nM] | Structure (SMILES)
4400 | 99.3 |  | Cc1sc2nc(COc3ccc(Cl)cc3)cc(=O)n2c1[C@@H]1C[C@H]1CO (relative stereo) [Example 4.8, 7-(4-Chlorophenoxymethyl)-3-[trans-2-(hydroxymethyl)cyclopropyl]-2-methyl-5H-[1,3]thiazolo[3,2-a]pyrimidin-5-one]
45300 | 114 |  | CCNC(=O)c1c(C)sc2nc(Cc3cc(C#N)ccc3Cl)cc(=O)n12 [Example 21.6, 7-(2-chloro-5-cyanobenzyl)-N-ethyl-2-methyl-5-oxo-5H-thiazolo[3,2-a]pyrimidine-3-carboxamide]
2500 | 138 |  | Cc1sc2nc(COc3cccc(F)c3)cc(=O)n2c1[C@@H]1C[C@H]1CO (relative stereo) [Example 4.4, 7-((3-fluorophenoxy)methyl)-3-(trans-2-(hydroxymethyl)cyclopropyl)-2-methyl-5H-thiazolo[3,2-a]pyrimidin-5-one]
16900 | 114 |  | CCN(Cc1cc(=O)n2c3c(sc2n1)CCC3CO)c1ccc(F)cc1 (stereo not drawn) [Example 8.5, 6-[(N-ethyl-4-fluoro-anilino)methyl]-1-(hydroxymethyl)-2,3-dihydro-1H-cyclopenta[3,4]thiazolo[1,4-a]pyrimidin-8-one]
16000 | 122 |  | CNC(=O)c1c(C)sc2nc(Cc3cccc(C#N)c3F)c(F)c(=O)n12 [Example 21.27]
495 | 158 |  | CCN(Cc1cc(=O)n2c(C(C)(C)O)c(C)sc2n1)c1ccc(F)cc1 [Example 10.5, 7-[(N-ethyl-4-fluoro-anilino)methyl]-3-(1-hydroxy-1-methyl-ethyl)-2-methyl-thiazolo[3,2-a]pyrimidin-5-one]
